Source: US20240247207A1, “MALTOSIDE-, LACTOBIONAMIDE-, MONOGLUCOSIDE-, BRANCHED DIGLUCOSIDE-, SULFOBETAINE-, SULFATE- OR AMINOOXIDE-BASED PERFLUORINATED DETERGENTS AND THEIR USE IN MEMBRANE-PROTEINS APPLICATIONS” (AVIGNON UNIVERSITE, priority 2021, published 2024)
“Also recorded” adds a separate entry of the source.

Assays:
[1] = SFT for CMC determination (surface tension, Wilhelmy plate technique); type: physicochemical; conditions: air/water interface, (20.0±0.5)° C.
Experimental: SFT for CMC determination. The surface activity of the compounds of the invention in solution at the air/water interface was determined using a K100 tensiometer (Kruss, Hamburg, Germany). Surface tensions were determined by dilution of stock solutions (13 g/L for compound 5a (cyF6H3Malt), 4.6 g/L for compound 5b (cyF6H4Malt), 2 g/L for compound 5c (cyF6H5Malt), 10 g/L for compound 8a (isoF5H3Malt), 1.7 g/L for compound 8c (isoF5H5Malt) and 0.4 g/L for compound 8b (isoF7H3Malt), ˜4×CMC) using the Wilhelmy plate technique. In a typical experiment, 13 concentration steps were prepared from solutions equilibrated overnight before measurement. All measurements were performed at (20.0±0.5)° C. until standard deviation reach ±0.05 or during at least 30 min.

[2] = tested on: membrane-proteins from native E. coli membranes; test: Extraction of membrane-proteins from native E. coli membranes, SDS-PAGE quantification; conditions: for membrane-protein extraction / solubilization efficiency (in words): CMC+1, 2, 5, 10 mM, at least 16 h at 20° C., yields relative to buffer without detergent
Experimental: Solubilization of Membrane-Proteins from native E. coli membranes. E. coli BL21(DE3) cells were transformed with an empty pET-24 vector and selected by kanamycin resistance. After incubation in 400 mL lysogeny broth overnight at 37° C. under constant agitation (150 rpm), cells were harvested by centrifugation and washed twice with saline (154 mM NaCl). Cell pellets were resuspended in ice-cold buffer (100 mM Na2CO3, pH 11.5) and subjected to ultrasonication in an S-250A sonifier (Branson Ultrasonics, Danbury, USA) twice for 10 min each. To remove cell debris, the lysate was centrifuged at 4° C. for 20 min at 7149 rpm (3000 g). The supernatant was ultracentrifuged at 4° C. for 1 h at 31 400 rpm (100,000 g) to separate membrane fragments from soluble and peripheral proteins. Membrane pellets were washed and suspended in working buffer, ultracentrifuged again at 4° C. for 1 h at 31 400 rpm (100,000 g) to remove any residual soluble or peripheral proteins. The resulting pellets were resuspended in buffer (50 mM Tris, 200 mM NaCl, pH 7.4) to a final concentration of 100 mg wet-weight pellet per 1 mL of buffer and mixed in a 1:1 volume ratio with stock solutions of the compounds of the invention in buffer. All samples were incubated for at least 16 h at 20° C. under constant, gentle agitation (500 rpm) and subsequently ultracentrifuged at 4° C. for 1 h at 51 000 rpm (100,000 g). The solubilized supernatant containing micelles was analyzed using SDS-PAGE.
Sodium dodecyl sulphate polyacrylamide gel electrophoresis (SDS-PAGE). The solubilization efficiency of compound 5a, F6OM, F6OPC and DDM on biological membranes was assessed by SDS-PAGE using a NuPAGE Bis-Tris system (Life Technologies, Carlsbad, USA) with a polyacrylamide gradient of 4-12%. 14-μL samples were mixed with 5 μL 4×SDS sample buffer (106 mM Tris HCl, 141 mM Tris base, 2% (w v) SDS, 10% (w v) glycerol, 0.51 mM EDTA, 0.22 mM SERVA Blue G250, and 0.175 mM Phenol Red, pH 8.5) and 1 μL 1 M dithiothreitol (DTT) and boiled at 95° C. for 10 min. 12 μL of each sample was loaded on a ready-to-use NuPAGE. As reference, a standard-weight marker (Roti-Mark 10-150, Carl Roth, Karlsruhe, Germany) was used, and the working buffer was used as negative control. […] For quantification of solubilization efficiencies, gels were photographed with a C4000Z camera (Olympus, Tokyo, Japan), and protein bands were analyzed with ImageJ software.
Results. The intensities (i.e., pixel counts) of SDS-PAGE band patterns (FIG. 2) were analyzed to provide the overall protein-extraction yields which were expressed relative to the buffer without any detergent.

[3] = literature value; cited from earlier work
[4] = 100 μM POPC LUVs, detergent at CMC+ca. 5 mM, 25° C., light scattering at 90°
Experimental: Preparation of lipid vesicles. To prepare LUVs, POPC in powder form was weighed on a high-precision XP Delta Range microbalance (Mettler Toledo, Greifensee, Switzerland) and suspended in phosphate buffer (10 mM Na2HIPO4/NaH2PO4, 150 mM NaCl, pH 7.4). The solution was vortexed for 15 min at room temperature and extruded in a LiposoFast extruder (Avestin, Mannheim, Germany) with at least 35 extrusion steps through two stacked polycarbonate membranes with a pore diameter of 100 nm (Avestin). The hydrodynamic diameter of the LUVs was distributed around 120-130 nm, as shown by DLS.
Kinetics of vesicle solubilization. For vesicle solubilization kinetics, measurements were conducted by adding a high concentration (ca. 5 mM) of the compound of the invention above its CMC to 100 μM POPC LUVs in a 3 mm×3 mm quartz glass cuvette. […] Measurements were started immediately after mixing the vesicle suspension to monitor changes in light scattering intensity, Iscatter at an angle of 90° and at 25° C.
The solubilization of preformed large unilamellar vesicles (LUVs) composed of the singly unsaturated phospholipid 1-palmitoyl-2-oleyl-sn-glycero-3-phosphocholine (POPC) was investigated.

SMILES	CMC (critical micellar concentration) [1] [mM]	γCMC (surface tension at the CMC) [1] [mN/m]	membrane-protein extraction / solubilization efficiency (in words) [2]	CMC [3] [mM]	solubilization efficiency at low concentrations, compared with DDM (in words) ([2]; low concentrations, CMC+1-5 mM)	time to complete solubilization of LUVs [4] [h]
OC[C@H]1O[C@H](O[C@H]2[C@H](O)[C@@H](O)[C@H](OCCCCC3(F)C(F)(F)C(F)(F)C(F)(F)C(F)(F)C3(F)F)O[C@@H]2CO)[C@H](O)[C@@H](O)[C@@H]1O [Compound 5b, 4-(perfluorocyclohexyl)-butoxy-4-O—(α-D-glucopyranosyl)-β-D-glucopyranoside]	2.29	22.7	–	–	–	–
OC[C@H]1O[C@H](O[C@H]2[C@H](O)[C@@H](O)[C@H](OCCCCCC3(F)C(F)(F)C(F)(F)C(F)(F)C(F)(F)C3(F)F)O[C@@H]2CO)[C@H](O)[C@@H](O)[C@@H]1O [Compound 5c, 5-(perfluorocyclohexyl)-pentoxy-4-O—(α-D-glucopyranosyl)-β-D-glucopyranoside]	0.70	23.16	–	–	–	–
OC[C@H]1O[C@H](O[C@H]2[C@H](O)[C@@H](O)[C@H](OCCCCCC(F)(F)C(F)(F)C(F)(C(F)(F)F)C(F)(F)F)O[C@@H]2CO)[C@H](O)[C@@H](O)[C@@H]1O [Compound 8c, 5-(perfluoroisopentyl)-pentoxy-4-O—(α-D-glucopyranosyl)-β-D-glucopyranoside]	0.53	22.1	–	–	–	–
C[N+](C)(C)CCOP(=O)([O-])OCCC(F)(F)C(F)(F)C(F)(F)C(F)(F)C(F)(F)C(F)(F)F [Compound F6OPC, (1H, 1H, 2H, 2H-Perfluorooctyl)phosphocholine, reference compound]	–	–	very limited solubilization	2.9	–	–
OC[C@H]1O[C@H](O[C@H]2[C@H](O)[C@@H](O)[C@H](OCCCC(F)(F)C(F)(F)C(F)(C(F)(F)F)C(F)(F)F)O[C@@H]2CO)[C@H](O)[C@@H](O)[C@@H]1O [Compound 8a, 3-(perfluoroisopentyl)-propoxy-4-O—(α-D-glucopyranosyl)-β-D-glucopyranoside]	2.66	22.5	–	–	–	–
OC[C@H]1O[C@H](O[C@H]2[C@H](O)[C@@H](O)[C@H](OCCCC(F)(F)C(F)(F)C(F)(F)C(F)(F)C(F)(C(F)(F)F)C(F)(F)F)O[C@@H]2CO)[C@H](O)[C@@H](O)[C@@H]1O [Compound 8b, 3-(perfluoroisoheptyl)-propoxy-4-O—(α-D-glucopyranosyl)-β-D-glucopyranoside]	0.11	17.4	–	–	–	–
OC[C@H]1O[C@H](O[C@H]2[C@H](O)[C@@H](O)[C@H](OCCCC3(F)C(F)(F)C(F)(F)C(F)(F)C(F)(F)C3(F)F)O[C@@H]2CO)[C@H](O)[C@@H](O)[C@@H]1O [Compound 5a, 3-(perfluorocyclohexyl)-propoxy-4-O—(α-D-glucopyranosyl)-β-D-glucopyranoside]	3.47	23.9	efficiently extracted membrane-proteins; also recorded: higher membrane-protein extraction yield than F6OM and F6OPC	–	better solubilization efficiencies than DDM	~2
C[N+](C)(CCCCCC1(F)C(F)(F)C(F)(F)C(F)(F)C(F)(F)C1(F)F)CCCS(=O)(=O)[O-] [Compound 17, 3-(dimethyl(5-(perfluorocyclohexyl)pentyl)ammonio)propane-1-sulfonate]	3.20	23.7	–	–	–	–
CCCCCCCCCCCCO[C@@H]1O[C@H](CO)[C@@H](O[C@H]2O[C@H](CO)[C@@H](O)[C@H](O)[C@H]2O)[C@H](O)[C@H]1O [DDM, n-dodecyl-β-D-maltoside]	–	–	–	0.17	–	–
OC[C@H]1O[C@H](O[C@H]2[C@H](O)[C@@H](O)[C@H](OCCC(F)(F)C(F)(F)C(F)(F)C(F)(F)C(F)(F)C(F)(F)F)O[C@@H]2CO)[C@H](O)[C@@H](O)[C@@H]1O [Compound F6OM, (1H, 1H, 2H, 2H-Perfluorooctyl)-β-D-Maltopyranoside, reference compound]	–	–	very limited solubilization	0.7	–	–
O=C(NCCCC1(F)C(F)(F)C(F)(F)C(F)(F)C(F)(F)C1(F)F)C(O)[C@H](O)[C@H](O[C@@H]1OC(CO)[C@H](O)[C@H](O)C1O)C(O)CO (stereo partly drawn) [Compound 12, 3-(perfluorocyclohexyl)-N-propane Octahydroxy lactobionamide]	6.32	24.4	–	–	–	–
